Values of other authors as cited in patent US20040028754A1, “Use of phyllanthus component for the treatment or prophylaxis of infections triggered by flaviviridae” (priority 2000, published 2004).

Legend:
[1] = system: Ca^2+- and phospholipid-dependent protein kinase C (PKC) of the rat brain
[2] = biological target: T1, cAMP-dependent protein kinase of the rat liver (Rattus norvegicus, UniProt P27791)
T1 construct: the cAMP-dependent protein kinase of the rat liver; from tissue; host or cells: rat liver

[3] = system: Ca^2+-dependent protein kinase of the wheat embryo
Bacillus subtilis = details: 0.1 ml; extract 50 mg/ml, streptomycin 10 mg/ml
Staphylococcus aureus = details: 0.1 ml; extract 50 mg/ml, streptomycin 10 mg/ml

| Compound | inhibition of protein kinase [1] | inhibition of protein kinase [2] | inhibition of protein kinase [3] | inhibition zone (Bacillus subtilis) [mm] | inhibition zone (Staphylococcus aureus) [mm] |
| --- | --- | --- | --- | --- | --- |
| O=C1OC2C3OC(=O)C4=CC(=O)C5(O)Oc6c(O)c(O)cc(c6C4C5(O)O)C(=O)OC2C(OC(=O)c2cc(O)c(O)c(O)c2)OC3COC(=O)c2cc(O)c(O)c3c2C2C1=CC(=O)C(O)(O3)C2(O)O (centres unmarked) [amariin] | most effective | most effective | most effective | – | – |
| [H]/N=C(/N)N[C@H]1[C@H](O)[C@@H](O)[C@H](O[C@@H]2O[C@@H](C)[C@](O)(C=O)[C@H]2O[C@@H]2O[C@@H](CO)[C@H](O)[C@@H](O)[C@@H]2NC)[C@@H](N/C(N)=N\[H])[C@@H]1O [streptomycin] | – | – | – | 35 | 35 |
| geraiin | most effective | most effective | most effective | – | – |
